The text below walks through data of PubChem BioAssay (NCI).

Structures are written as SMILES.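 These data come from cells grown in 96-well plates and exposed to compound for 48 hours at five concentrations. TGI is the concentration that stops growth completely.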

What all share (test): DTP human tumour cell line panel, 48 h
Assay [1] has as its system BT-549 breast.
Assay [2] has as its system HCC-2998 colon.
In assay [3] the test system is KM12 colon.
Assay [4] deals with MDA-N.
In assay [5] the test system is NCI-H23 lung.
Assay [6] deals with NCI-H460 lung.
The subject of assay [7] is OVCAR-4 ovarian.
The subject of assay [8] is OVCAR-5 ovarian.
For assay [9], the system named is U251 CNS.
Assay [10] deals with UO-31 renal.

The TGI is the concentration giving total growth inhibition. The low end stands for greater sensitivity of the cells, the high end for lower sensitivity of the cells. With `Cc1ccc(C(=O)O)c(CC2Cc3c(C)cccc3C2=O)c1` (centres undefined), the TGI in [1], in [2], in assay [3], in assay [4], in assay [5] and in [6] was above 100 µM in each case. Also, the TGI in assay [7], in assay [8], in [9] and in assay [10] was above 100 µM throughout.
As to `C/C=C\C(CC(=O)NCCc1cn(C(=O)OCc2ccccc2)c2ccccc12)CC(=O)OC` (centres undefined), the TGI in [1], in [2], in assay [3], in assay [4], in assay [5] and in assay [6] was above 100 µM each time. In addition, the TGI in assay [7], in assay [8], in [9] and in assay [10] was above 100 µM in each case.
With `C(=C\c1cccc(/C=C/c2ccccn2)n1)/c1ccccn1`, the TGI in [1] was 40.9 µM; in assay [2], above 100 µM; in assay [3], above 100 µM; in assay [4], above 100 µM; in [5], above 100 µM; in [6] it was above 100 µM. Besides, the TGI in assay [7], in assay [8], in assay [9] and in assay [10] was above 100 µM each time.
As to `CN(C)c1nc(N(C)C)nc(N(C)C23CC4CC(CC(C4)C2)C3)n1`, the TGI in [1] is 63.4 µM; in [2], 85.3 µM; in assay [3], above 100 µM; in assay [4], 53.7 µM; in [5] it was 34.1 µM; in assay [6] it was above 100 µM. The TGI in assay [7], in assay [8], in assay [9] and in assay [10] was above 100 µM throughout.
In the case of `CCOC(=O)C(=[N+]=[N-])C(=O)Nc1nn2nnnc2c2ccccc12`, the TGI in [1], in assay [2], in assay [3], in [4], in assay [5] and in assay [6] was above 100 µM each time. Besides, the TGI in assay [7], in [8], in assay [9] and in assay [10] was above 100 µM in each case.
With `CC[N+]1(C)CCC(O)(/C=C/c2ccc(OC)cc2)C(C(=O)/C=C/c2ccc(OC)cc2)C1` (centres undefined), the TGI in [1] is 49.7 µM; in assay [2] it was 46.4 µM; in [3], 16.8 µM; in [4] it was above 50.1 µM; in assay [5], 42.6 µM; in assay [6], above 35.6 µM. Moreover, the TGI in assay [7] was above 59.6 µM; in [8], 44.1 µM; in assay [9], 33.9 µM; in assay [10], 26.6 µM.
On to `CC(=O)O[C@@H]1C[C@@]23C[C@@]24CC[C@H](OC2OCC(O)C(O)C2O)C(C)(C)[C@@H]4CC=C3[C@]2(C)C[C@@H]3OC4(C[C@@H](C)[C@@H]3[C@@]12C)OC(O)[C@@]1(C)O[C@@H]41` (some centres undefined), for which the TGI in assay [1] was 97.3 µM; in assay [2] it was 40.5 µM; in assay [3] it was above 100 µM; in assay [4], above 100 µM; in assay [5], above 100 µM; in assay [6], 66.9 µM. Also, the TGI in assay [7], in assay [8], in assay [9] and in assay [10] was above 100 µM throughout.
`CN(C)/N=C/c1cn(C)c(=O)n(C)c1=O`: the TGI in assay [1], in assay [2], in assay [3], in assay [4], in [5] and in [6] was above 100 µM each time. The TGI in [7], in [8], in [9] and in [10] was above 100 µM throughout.
Take `CCOC(=O)c1c(N2CCCC2)ncn(-c2ccccc2)c1=S`: the TGI in assay [1], in assay [2], in assay [3], in assay [4], in assay [6] and in assay [7] was above 100 µM in each case. Besides, the TGI in assay [8], in [9] and in assay [10] was above 100 µM in each case.
Regarding `CC(C)=CCC[C@@H](C)C1=C(Nc2ccccc2Cl)C(O)=C(C)C(=O)C1=O`, the TGI in assay [1] is 36.3 µM; in assay [2] it was 31 µM; in [3], 17.7 µM; in assay [4], 27 µM; in [5] it was 15.9 µM; in assay [6], above 100 µM. Besides, the TGI in assay [7] was 43.3 µM; in [8] it was above 52 µM; in assay [9], 38 µM; in assay [10] it was 17.9 µM.
As for `CCc1c(Cc2cccc3ccccc23)n2c(nc1=O)SCC2OCCO` (centres undefined), the TGI in assay [1], in [2], in assay [3], in assay [4], in [5] and in assay [6] was above 100 µM throughout. The TGI in assay [7], in [8], in assay [9] and in assay [10] was above 100 µM in each case.
On to `CCCCc1cc2c(C)cc(=O)oc2c(O)c1O`, for which the TGI was 33.6 µM in [1]; 15.7 µM in assay [2]; 64.3 µM in assay [3]; above 100 µM in assay [4]; above 100 µM in assay [5]; above 100 µM in [6]. For the same molecule, the TGI in [7] is above 100 µM; in [8] it was above 100 µM; in [9], 56.1 µM; in [10] it was 54.6 µM.
As to `C/C(=C\c1ccccn1)c1ccccn1`, the TGI in assay [1], in [2], in assay [3], in [4], in [5] and in assay [6] was above 100 µM in each case. Further, the TGI in assay [7], in [8], in assay [9] and in assay [10] was above 100 µM throughout.
